Source: US11149021B2, “N-(azaaryl)cyclolactam-1-carboxamide derivative, preparation method therefor, and use thereof” (Abbisko Therapeutics Co., Ltd., priority 2017, dated 2021)
Read-outs that look alike come from different tables or passages of the source.

How the values were obtained:
[1] = system: M-NFS-60 mouse myeloid leukemia lymphocytes; experiment: CSF-1R cell proliferation study (Cell Titer Glo); format: cell-based; conditions: Lymphocyte, 72 h;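 also: M-CSF-driven proliferation, viable cells quantified as ATP by luminescence, compounds tested as 3-fold serial dilutions, values from four-parameter curve fits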
[2] = system: M-07e human cytomegalic leukemia cells; experiment: CSF-1R-related cell proliferation experiment, KIT (Cell Titer Glo); format: cell-based; conditions: 72 h, read-out: Cytological experiment KIT IC50 (nM)
[3] = system: NCI-H1703 human non-small cell lung squamous carcinoma cells; experiment: CSF-1R-related cell proliferation experiment, PDGFRA (Cell Titer Glo); format: cell-based; conditions: NCI-H1703, 72 h, read-out: Cytological experiment PDGERA IC50 (nM)
[4] = biological target: PDGFRA (Homo sapiens, UniProt P16234); experiment: PDGFRA in vitro biochemical kinase study (Caliper EZ Reader); conditions: * = average of multiple tests; read-out: Enzymatic experiment PDGFRA IC50
PDGFRA, sequence (P16234 24-1089): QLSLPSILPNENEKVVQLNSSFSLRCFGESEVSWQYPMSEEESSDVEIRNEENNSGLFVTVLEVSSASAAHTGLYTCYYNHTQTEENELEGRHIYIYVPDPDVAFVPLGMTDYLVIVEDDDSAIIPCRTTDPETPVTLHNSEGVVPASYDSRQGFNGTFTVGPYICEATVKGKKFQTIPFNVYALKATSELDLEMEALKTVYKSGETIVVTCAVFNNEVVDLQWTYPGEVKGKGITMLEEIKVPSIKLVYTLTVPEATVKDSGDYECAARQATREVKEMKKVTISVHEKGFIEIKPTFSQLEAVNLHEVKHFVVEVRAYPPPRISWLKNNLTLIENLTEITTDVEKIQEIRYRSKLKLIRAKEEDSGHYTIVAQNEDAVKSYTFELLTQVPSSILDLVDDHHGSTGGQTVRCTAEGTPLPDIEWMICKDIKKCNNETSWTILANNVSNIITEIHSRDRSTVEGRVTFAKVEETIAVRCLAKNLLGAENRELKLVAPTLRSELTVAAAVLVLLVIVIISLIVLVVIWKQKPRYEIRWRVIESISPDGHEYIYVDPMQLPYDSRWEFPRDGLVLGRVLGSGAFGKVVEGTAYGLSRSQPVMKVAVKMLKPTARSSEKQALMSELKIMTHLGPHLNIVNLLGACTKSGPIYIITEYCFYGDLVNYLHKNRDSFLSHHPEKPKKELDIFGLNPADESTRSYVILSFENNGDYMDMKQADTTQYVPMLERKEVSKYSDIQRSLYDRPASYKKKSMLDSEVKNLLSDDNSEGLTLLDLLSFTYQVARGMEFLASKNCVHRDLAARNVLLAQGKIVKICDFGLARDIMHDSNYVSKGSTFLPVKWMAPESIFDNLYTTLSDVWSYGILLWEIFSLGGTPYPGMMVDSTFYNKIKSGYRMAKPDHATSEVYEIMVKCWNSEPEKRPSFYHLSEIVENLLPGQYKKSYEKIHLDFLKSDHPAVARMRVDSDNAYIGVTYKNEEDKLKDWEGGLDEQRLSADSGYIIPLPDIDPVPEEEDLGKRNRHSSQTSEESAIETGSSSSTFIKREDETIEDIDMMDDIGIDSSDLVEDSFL
Experimental: (§1) 8. the compound IC50 value was measured by using a plate reader (Tecan, M1000) and a four-parameter curve was generated in Graphpad Prism. The enzymatic activities of compounds in the specific embodiments are shown in Table 1. • B. KIT/PDGFRA in vitro biochemical kinase study • 1. Preparation of 1-fold kinase buffer and stop solution • 1.1. 1-fold kinase buffer: 50 mM HEPES, pH 7.5, 0.0015% Brij-35. • 1.2 stop solution: 100 mM HEPES, pH 7.5, 0.015% Brij-35, 0.2% Coating Reagent #3, 50 mM EDTA • 2 Preparation of compound solution • 2.1 Dilution of compound solution • 1) The final concentration of the compound solution was 40 μM, and the concentration of the prepared stock solution was 50 times of the final concentration, i.e., 2 mM. • 2) 80 μL of 100% DMSO was added to the second well of a 96-well plate, and then 20 μL of 10 mM compound solution was added to obtain 2 mM compound solution. 60 μL of 100% DMSO was added to other wells. 20 μL solution was taken from the second well and added to the third well, which was diluted by 4 times. This serial 4-time dilution was conducted in sequence for the total of 10 concentration. • 2.2 5-fold compound solution transferred to a reaction plate • 1) 10 μL solution was taken from each well of the above 96-well plate and added to another 96-well plate, and 90 µl of kinase buffer was added in each well of new plate. • 2) 5 μL solution was taken from the above 96-well plate and added to a 384-well reaction plate. • 2.3 Kinase reaction • 1) KIT/PDGFRA kinase was added to the 1-fold kinase buffer solution to obtain a 2.5-fold kinase solution. • 2) FAM-labeled polypeptide and ATP were added to the 1-fold kinase buffer solution to obtain a 2.5-fold substrate solution. • 3) 10 μL of 2.5-fold kinase solution was added to the 384-well reaction plate, which already contained 5 μL of 5-fold compound in 10% DMSO. […] Percent inhibition=(max-conversion)/(max-min)×100
(§2) 3) The IC50 value was fit with XLFit excel add-in version 5.4.0,8: Fitting formula: Y=Bottom+(Top-Bottom)/(1+(IC50/X)^HillSlope).
(§3) CSF-1R cell proliferation study

[5] = biological target: KIT (Homo sapiens, UniProt P10721); experiment: KIT in vitro biochemical kinase study (Caliper EZ Reader); conditions: * = average of multiple tests; read-out: Enzymatic experiment KIT IC50
KIT, sequence (P10721 26-976): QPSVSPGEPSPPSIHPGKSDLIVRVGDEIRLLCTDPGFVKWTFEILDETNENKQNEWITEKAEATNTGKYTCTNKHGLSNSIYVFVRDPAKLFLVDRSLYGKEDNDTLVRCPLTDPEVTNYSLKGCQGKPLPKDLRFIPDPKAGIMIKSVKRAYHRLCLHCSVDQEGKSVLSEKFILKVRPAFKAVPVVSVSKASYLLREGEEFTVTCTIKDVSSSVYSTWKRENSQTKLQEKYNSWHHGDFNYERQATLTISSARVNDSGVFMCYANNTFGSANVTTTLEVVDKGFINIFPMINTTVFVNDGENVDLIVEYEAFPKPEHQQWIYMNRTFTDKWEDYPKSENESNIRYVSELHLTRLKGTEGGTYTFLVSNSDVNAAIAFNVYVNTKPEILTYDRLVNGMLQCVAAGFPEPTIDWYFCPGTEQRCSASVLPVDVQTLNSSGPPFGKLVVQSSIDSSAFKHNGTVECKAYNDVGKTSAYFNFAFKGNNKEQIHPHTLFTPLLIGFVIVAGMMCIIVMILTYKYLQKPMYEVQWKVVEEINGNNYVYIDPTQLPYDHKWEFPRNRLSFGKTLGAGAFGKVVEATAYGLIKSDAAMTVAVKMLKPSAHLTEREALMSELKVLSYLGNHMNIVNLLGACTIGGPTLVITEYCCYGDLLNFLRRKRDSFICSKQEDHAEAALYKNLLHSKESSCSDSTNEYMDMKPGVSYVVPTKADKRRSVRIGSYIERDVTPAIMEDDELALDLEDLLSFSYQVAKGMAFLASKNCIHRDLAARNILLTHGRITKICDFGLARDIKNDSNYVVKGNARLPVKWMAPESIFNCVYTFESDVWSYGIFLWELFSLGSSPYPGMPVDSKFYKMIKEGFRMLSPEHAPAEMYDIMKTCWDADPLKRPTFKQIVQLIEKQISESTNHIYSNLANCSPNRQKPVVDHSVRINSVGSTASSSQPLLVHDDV
Experimental: as §1, §2, §3

[6] = biological target: T1, CSF-1R (Homo sapiens, UniProt P07333); experiment: CSF-1R in vitro biochemical kinase study (ADP-Glo assay)
T1 construct: 3.95 nM of CSF-1R, 500 μM of ATP
T1 sequence (P07333 20-972): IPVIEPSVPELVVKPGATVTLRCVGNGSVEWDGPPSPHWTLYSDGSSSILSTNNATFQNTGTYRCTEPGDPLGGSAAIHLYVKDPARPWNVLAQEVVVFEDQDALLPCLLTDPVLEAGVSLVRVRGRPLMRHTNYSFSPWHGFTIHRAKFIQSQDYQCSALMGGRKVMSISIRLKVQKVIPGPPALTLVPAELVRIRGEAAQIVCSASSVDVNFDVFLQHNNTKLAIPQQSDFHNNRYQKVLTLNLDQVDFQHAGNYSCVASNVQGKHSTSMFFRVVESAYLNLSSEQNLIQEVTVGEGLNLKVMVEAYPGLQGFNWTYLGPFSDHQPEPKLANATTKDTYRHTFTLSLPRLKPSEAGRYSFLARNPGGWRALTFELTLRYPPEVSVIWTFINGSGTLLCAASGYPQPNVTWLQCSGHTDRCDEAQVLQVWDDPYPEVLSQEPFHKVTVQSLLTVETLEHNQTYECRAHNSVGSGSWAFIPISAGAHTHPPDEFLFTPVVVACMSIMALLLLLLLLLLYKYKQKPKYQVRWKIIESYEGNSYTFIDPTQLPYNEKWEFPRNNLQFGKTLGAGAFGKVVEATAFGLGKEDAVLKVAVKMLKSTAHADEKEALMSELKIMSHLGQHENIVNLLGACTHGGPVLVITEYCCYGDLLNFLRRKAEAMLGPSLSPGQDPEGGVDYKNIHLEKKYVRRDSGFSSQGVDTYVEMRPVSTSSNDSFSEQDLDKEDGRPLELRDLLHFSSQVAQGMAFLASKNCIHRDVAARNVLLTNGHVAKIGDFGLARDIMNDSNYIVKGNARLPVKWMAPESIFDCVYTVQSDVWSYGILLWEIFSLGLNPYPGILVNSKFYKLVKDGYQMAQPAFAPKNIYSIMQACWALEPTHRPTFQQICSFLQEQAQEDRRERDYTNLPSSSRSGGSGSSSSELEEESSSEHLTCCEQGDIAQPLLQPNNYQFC

[7] = system: MV-4-11 human acute monocytic leukemia cells; experiment: CSF-1R-related cell proliferation experiment, FLT3 (Cell Titer Glo); format: cell-based; conditions: MV4-11, 72 h, read-out: Cytological experiment FLT3 IC50 (nM)
[8] = read-out: Cytological experiment CS1-1R Absolute IC50 (nM)
[9] = read-out: Cytological experiment CSF-1R IC50 (nM)

Row | IC50 [1, 8] | IC50 [1, 9] | IC50 [2] | IC50 [3] | IC50 [4] | IC50 [5] | IC50 [6] | IC50 [7] | SMILES
1 | 36.6 nM | 42.9 nM | 1670 nM | 6000 nM | 2450 nM | 167 nM | 25.8 nM | 9000 nM | CCn1cc(-c2cc(Oc3ccc(NC(=O)N4CCC(C)(C)C4=O)nc3C)ccn2)cn1 [Example 6, N-(5-((2-(1-ethyl-1H-pyrazol-4-yl)pyridin-4-yl)oxy)-6-methylpyridin-2-yl)-3,3-dimethyl-2-oxopyrrolidine-1-carboxamide]
2 | 31.9 nM | 35.7 nM | 940 nM | 9530 nM | 107 nM | 8.48 nM | 24.2 nM | 10000 nM | Cc1nc(NC(=O)N2CCCC(C)(C)C2=O)ccc1Oc1ccnc(-c2cnn(C)c2)c1 [Example 28, 3,3-dimethyl-N-(6-methyl-5-((2-(1-methyl-1H-pyrazol-4-yl)pyridin-4-yl)oxy)pyridin-2-yl)-2-oxopiperidine-1-carboxamide]
3 | 140 nM | 104 nM | 4900 nM | 6000 nM | 13100 nM | 476 nM | 56.3 nM | 18000 nM | Cc1nc(NC(=O)N2CCC(C)(C)C2=O)ccc1Oc1ccnc(-c2cnn(CCO)c2)c1 [Example 10, N-(5-((2-(1-(2-hydroxyethyl)-1H-pyrazol-4-yl)pyridin-4-yl)oxy)-6-methylpyridin-2-yl)-3,3-dimethyl-2-oxopyrrolidine-1-carboxamide]
4 | 75.1 nM | 76.3 nM | > 2000 nM | > 6000 nM | 931 nM | 92.5 nM | 52.2 nM | > 18000 nM | Cc1nc(NC(=O)N2CCOC(C)(C)C2=O)ccc1Oc1ccnc(-c2cnn(C)c2)c1 [Example 29, 2,2-dimethyl-N-(6-methyl-5-((2-(1-methyl-1H-pyrazol-4-yl)pyridin-4-yl)oxy)pyridin-2-yl)-3-oxomorpholine-4-carboxamide]
5 | 23.1 nM | 26.3 nM | 158 nM | 18000 nM | 435 nM | 59.8 nM | 14.4 nM | 6000 nM | Cn1cc(-c2cc(Oc3ccc(NC(=O)N4CCC(C)(C)C4=O)nc3)ccn2)cn1 [Example 2, 3,3-dimethyl-N-(5-((2-(1-methyl-1H-pyrazol-4-yl)pyridin-4-yl)oxy)pyridin-2-yl)-2-oxopyrrolidine-1-carboxamide]
6 | 24.1 nM | 25 nM | 1060 nM | 2870 nM | 1400 nM | 77 nM | 19.5 nM | 5560 nM | Cc1nc(NC(=O)N2CCC(C)(C)C2=O)ccc1Oc1ccnc(-c2cnn(C)c2)c1 [Example 1, 3,3-dimethyl-N-(6-methyl-5-((2-(1-methyl-1H-pyrazol-4-yl)pyridin-4-yl)oxy)pyridin-2-yl)-2-oxopyrrolidine-1-carboxamide]
